The values below come from patent US8552048B2, “Phosphoramidate alkylator prodrugs for the treatment of cancer” (Threshold Pharmaceuticals, Inc., priority 2006, dated 2013).

The term AUC denotes the area under the concentration-time curve, a measure of exposure. The low end stands for less exposure, the high end for more exposure. For orientation: Cmax means the maximum level reached in the sampled fluid or tissue. A word on the half-life: it is the time needed for the level to fall by half in the phase considered. A higher half-life goes with slow decline.

A short description of series [1]: Pharmacokinetics after repeated administration (Q7D×3) to rats. It is filed as in vivo. On the procedure: Each rat received a 30 minute infusion once a week for three weeks (Q7D×3).
Br-IPM being capable of reacting with water and a number of other nucleophiles, for HPLC analysis of Br-IPM, the plasma obtained was frozen and treated with NaF and potassium oxalate.

A short description of series [2]: Pharmacokinetics after repeated administration (Q7D×3) to dogs. It is filed as in vivo. An excerpt:
These changes were reversible.

The test system of series [3] is IGROV1 human ovarian cancer cells. Description: IGROV1 ovarian cancer xenograft. It is filed as in vivo. The settings on record: CDDP 4 mg/kg and 6 mg/kg i.p. Q7D×2 (both doses). On the procedure: Forty nude mice were subcutaneously implanted with IGROV1 human ovarian cancer cells (5×10^6 cells/mouse). The tumor volumes were measured twice weekly starting on day 7. On day 8, tumor volumes reached about 97.7±3.9 mm^3. The mice were randomized in 3 treatment groups that were administered the following: CDDP (4 mg/kg, ip, Q7D×2), CDDP (6 mg/kg, i.p. Q7D×2), and TH302 (75 mg/kg, i.v., Q7D×2). A control group of mice were administered saline. […] Forty five days after the first administration of TH302, tumor growth inhibition was 66%. The tumor growth delay (to 300 mm^3) was 19 days.

For series [4], the system named is HT29 Human colorectal cancer cells. Kind of series: HT29 xenograft, TH302 in combination with irinotecan. It is filed as in vivo, mice. The conditions noted are these: CPT-11 monotherapy 50 mg/kg i.p. Q7D×3, vs control group. How it is done:
TH302 and irinotecan (CPT-11) were formulated as follows: TH302 (7.5 mg/mL) in saline and CPT-11 (5 mg/mL) in 2% Tween80-saline. The formulations were filtered through a 0.2 μm filter then delivered to animals within one hour after it was made. HT29 Human colorectal cancer cells were prepared in 50% matrigel and 50% RPMI 1640 medium and implanted (3×10^6 cells) in the subcutaneous space of the right flank of 90 mice (0.2 mL/mouse). Tumor volumes reached about 160 mm^3 on day 12 day post implantation. Seventy two animals with similar tumor size were chosen for treatment after randomization. The remaining mice were used as no treatment control.
The mice were administered TH302 intravenously at 75 mg/kg, once per week for 2 weeks (Q7D×2, i.v.) alone, and in combination with CPT-11, administered at, 50 mg/kg, (Q7D×3, intraperitoneally (i.p.)). […] After dosing started, tumor volumes were measured twice per week. […] For the mice administered CPT-11 alone, i.e., those on CPT-11 monotherapy, 41% tumor growth inhibition was observed compared to the control group of mice.

Series [5] relates to PC-3 human prostate tumor. Description: GFP PC3 prostate orthotopic model. It is filed as in vivo, mice.
Series [6] relates to PC-3 human prostate cells. Kind of series: PC-3 luciferase intracardiac metastasis model (bioluminescence). In kind it is in vivo, nude mice. How it is done:
Male nude mice were injected into their left ventricle with PC-3 human prostate cells (3×10^6) transfected with the gene for luciferase. The success of the intracardiac transfections was verified by a bioluminescence scan after the injection. On day 14, the mice with established bone tumor burden were randomized into four treatment groups (N=10): Taxotere® alone (20 mg/kg once a week for three weeks, i.v.), TH302 alone (50 mg/kg daily, 5 days a week for 3 weeks), combination treatment with both agents, and vehicle. Bioluminescence imaging was performed under anesthesia using an IVIS 50 optical imaging system.

Setting [7] is: bromo-IPM in rats after TH302 12.5 mg/kg Q7D×3, Day 15.
Where [8] appears, read: bromo-IPM in rats after TH302 25 mg/kg Q7D×3, Day 15.
Where [9] appears, read: bromo-IPM in rats after TH302 50 mg/kg Q7D×3, Day 15.
Setting [10] is: bromo-IPM in dogs after TH302 8 mg/kg Q7D×3, Day 15.
[11] abbreviates: bromo-IPM in dogs after TH302 16 mg/kg Q7D×3, Day 15.

`O=P(O)(NCCBr)NCCBr` [Br-IPM, HO—P(═O)(NHCH2CH2Br)2]: the AUC in series [1] (setting [7]) was 107 ng·h/mL; in series [1] (setting [8]) it was 97 ng·h/mL; in series [1] (setting [9]), 143 ng·h/mL. For the same compound, the Cmax in series [1] (setting [7]) was 286 ng/mL; in series [1] (setting [8]), 375 ng/mL; in series [1] (setting [9]), 385 ng/mL; in series [2] (setting [10]), 62.7 ng/mL; in series [2] (setting [11]), 146 ng/mL. Besides, the half-life in series [1] (setting [7]) worked out at 8.88 min; in series [1] (setting [8]), 8.28 min; in series [1] (setting [9]) it was 23 min; in series [2] (setting [11]) it was 18.3 min. The “AUC of the active toxin Br-IPM” value in series [1] (rats, after TH302 25 mg/kg) is “about 97 h×ng/mL”; in series [2] (dogs, after TH302 8 mg/kg), “about 21.8 h×ng/mL”. Moreover, the AUClast in series [2] (setting [10]) was found to be 21.8 ng·h/mL; in series [2] (setting [11]), 60.7 ng·h/mL.
Turning to `N.N.[Cl][Pt][Cl]` [CDDP, reference compound], the “reduction in tumor volume” value in series [3] was “did not show significant reduction in tumor volume”.
On to `CCc1c2c(nc3ccc(OC(=O)N4CCC(N5CCCCC5)CC4)cc13)-c1cc3c(c(=O)n1C2)COC(=O)[C@]3(O)CC` [CPT-11, irinotecan], for which the tumor growth inhibition in series [4] came to 41%.
For `CC(=O)O[C@@]12CO[C@@H]1C[C@H](O)[C@@]1(C)C(=O)[C@H](O)C3=C(C)[C@@H](OC(=O)[C@H](O)[C@@H](NC(=O)OC(C)(C)C)c4ccccc4)C[C@@](O)([C@@H](OC(=O)c4ccccc4)[C@H]21)C3(C)C` [Taxotere®, Docetaxel], in series [5] (Taxotere 12 mg/kg once a week for two weeks, alone or with TH302), the “tumor volume regressed to” value was found to be 21±15 mm^3. Also, in series [5] (Taxotere alone or with TH302, P<0.01 combination vs Taxotere alone), the “tumor volume on day 62” value turned out to be 766 mm^3. Also, in series [5] (single agent, Taxotere 12 mg/kg once a week for two weeks), the “tumor growth delay (TGD)” value is recorded as 31 days. The “toxicities (weight loss, deaths)” value in series [6] (TH302 50 mg/kg daily 5 days a week for 3 weeks, Taxotere 20 mg/kg once a week for three weeks i.v., or both) is “weight loss and a toxicity-related death”. For the same compound, in series [6] (Taxotere alone 20 mg/kg once a week for three weeks, i.v.), the “bone metastases and soft tissue tumor burden compared to vehicle” value is “significant reduction in bone metastases and soft tissue tumor burden”.
